From article PMC11295118, “Harnessing the Intrinsic Chemical Reactivity of the Mycotoxin Patulin for Immunosensing” (Analytical Chemistry, 2024)
Structures can show the parent of a compound that is named as a salt.

Test system: monoclonal antibodies raised against BSA–Ia
Experiment: Specificity of the monoclonal antibodies by competitive ELISA
Format: binding, mice
Settings: for recognition by the antibodies: competitors tested separately (without derivatization)
Text: The high affinity of the rabbit antisera for patulin after its transformation into adduct I motivated us to pursue the production of monoclonal antibodies (mAbs), given their high value in industry for the development of rapid commercial assays. To this end, standard hybridoma technology was employed with splenocytes from mice immunized with the bioconjugate BSA–Ia, the immunogen that elicited the best response in rabbits (Supporting Information). From two independent cell fusion experiments, three antibody-producing hybridomas capable of recognizing adduct I were generated. Following affinity purification, the mAbs were characterized by direct and indirect competitive ELISA using the homologous and the heterologous conjugate, i.e., based on hapten Ia or Ib, respectively. As summarized in Table S2, the three antibodies successfully recognized both coating conjugates (OVA–Ia and OVA–Ib), yielding IC50 values for patulin below 7.0 nM. […] In the direct competitive format, even better IC50 values were found with mAbs #13 and #17 when used with the homologous enzyme tracer HRP–Ia (IC50 = 0.7–0.8 nM). […]
dissolved in 8‐10 mL of 20 mM phosphate buffer, pH 7.4, and filtered through a nitrocellulose membrane (0.45 μm pore diameter). The resulting filtrate was purified by affinity chromatography with a 5 mL HiTrap Protein G HP column, and the antibody‐containing fractions were gathered and the buffer was exchanged to 20 mM phosphate buffer, pH 7.4, using Amicon Ultra 4 10k centrifugal devices. Final antibody concentration was calculated using the absorption at 280 nm and a molar extinction coefficient of 1.4 L g‐1 c m ‐1. The purified antibodies were precipitated with 1 volume of saturated ammonium sulphate for long‐term storage at 4 °C. […]
Antibody‐coated direct competitive ELISA. […] Following incubation during 10 min at rt, the reaction was stopped by adding 100 µL per well of 1 M H2SO4, and the absorbance was […]
Following incubation during 10 min at rt, the reaction was stopped by adding 100 µL per well of 1 M H2SO4, and the absorbance was immediately read. […]

Row | Compound | recognition by the antibodies | inhibition curves compared with patulin after reacting with 7a (adduct I or derivatized patulin used as competitors)
1 | [Na][S]c1ccccc1[S][Na] [7a, sodium salt of benzene-1,2-dithiol] | did not recognize | –
2 | O=C/C(CC(=O)O)=C1\Sc2ccccc2S[C@H]1CO [adduct I] | – | overlapped
3 | O=C1C=C2C(=CCOC2O)O1 (stereo not drawn) [patulin] | did not recognize | –
